Experimental data as given in US8916586B2, “Anti-angiogenic compound” (University College Dublin—National University of Ireland, …, priority 2011, dated 2014).
Entries after “also recorded” stand apart in the source; their conditions may differ.

Columns and labels:
[1] = test system: hyaloid vasculature in zebrafish; experiment: Zebrafish developmental angiogenesis assay: number of primary branches of hyaloid vasculature on dissected lens; format: in vivo; conditions: for dose-dependence of inhibition of hyaloid vasculature development: increasing concentrations between 1-10 μM, 5 dpf; for inhibition of intraocular angiogenesis (hyaloid vessels) in library screen: 5 day old larvae
Text: We have used the zebrafish model as an in vivo screen for chemical libraries as the small size and transparency of the zebra fish enables high-content screens in multi-well plate formats (MacRae and Peterson, 2003; Pichler et al., 2003; Peterson et al., 2004; den Hertog, 2005; Zon and Peterson, 2005). […] To identify anti-angiogenic drugs we used a transgenic line of zebrafish that expresses a fluorescent reporter (EGFP) specifically in vasculature (Tg(fli1:efgp)). This line was obtained from the Zebrafish International Resource Center. Our assay involved screening the effect of drugs in the library on the development of blood vessels in zebrafish. Specifically, we looked at the integrity of vessels developing in the eye (hyaloid vessels attached to the lens) and in the trunk.
All experiments were carried out under ethical approval granted by the UCD animal research ethics committee. Tg(fli1:EGFP) zebrafish were maintained according to standard procedures on a 14 hr light/10 hr dark cycle at 28° C. Referring to the schematic of FIG. 1A, embryos were obtained by natural spawning and developmental stages established by time and morphological criteria. A chemical library containing numerous compounds was screened (FIG. 1A). In this specific example, the chemical library contained 5000 compounds of the DIVERSet™ collection from ChemBridge Corp., USA. At 24 hours post fertilisation (hpf), 5 embryos per well were placed in […] of Embryo Medium/1% DMSO and incubated with drug at 28° C. on a 14 h light/10 h dark cycle. Larvae were euthanised, and fixed in 4% PFA at 4° C. overnight before analysis. (FIG. 1A).
Right lenses were dissected from the larvae and transferred to depression slides for observation under epi-fluorescence in the Olympus SZX16 and to cover-slip bottom Petri-dishes for confocal microscopy in a Zeiss UV510 META LSM system (20× and 40× inverted objectives). To achieve appropriate orientation, lenses were embedded in 10% methyl-cellulose and manipulated with a tungsten needle (0.5 mm diameter). Patterning of the hyaloid vessels on the treated larval lenses was compared to DMSO controls and the archetypal pattern previously described (Alvarez et al., 2007; Alvarez et al., 2009). The number of primary vessels radiating from the back of the lens (3-4 main branches at 5 dpf in controls and previously described), was counted and the average number was graphed for each drug. From screens of ˜1600 small molecules, four “hits” that inhibited the number of primary hyaloids vessels were identified (FIG. 1B).
To validate the “hits” from the library screen, dose-dependence experiments were conducted by screening the drugs in the assay described in Example 2 above but at a range of increasing concentrations between 1-10 μM. Larvae were maintained under the drug treatments at 28° C. on 14 hr light/10 hr dark cycle until 5 days post fertilisation (dpf), when they were euthanised and fixed in 4% PFA at 4° C. overnight before analysis. The average number of primary hyaloids branches was graphed for each concentration of drug. […] One of the lead compounds identified by the screen of chemical library was 11B which has the chemical name 2-[2-2-quinolinyl)vinyl]phenol and its structure shown below: […]

zebrafish larvae = experiment: Gross morphology / toxicity and eye morphology of treated zebrafish larvae; format: in vivo; conditions: for toxic effects / gross morphology of larvae: treated 1-5 dpf
Description: Prior to analysis of the intraocular vasculature, the control and treated larvae were observed under an Olympus SZX16 stereo zoom microscope and screened for general malformations. Overall patterning of the vasculature (fin, gut and intersegmental vessels) was examined for abnormalities (FIGS. 7B and 9A).
Visual function was assessed using the optokinetic response, a behavioural assay that tests the ability of larval zebrafish to track moving stripes (Brockerhoff 2006). […] For these experiments the compounds were screened in zebrafish larvae as described above except that the drug (compound 11B) was added at either day 1, 2, 3 or 4, and all treated larvae were analysed at day 5.

[2] = test system: dermal-derived normal human microvascular endothelial cells (HMVEC-d); experiment: In vitro HMVEC-d tube formation assay on Matrigel; format: cell-based; conditions: 100 nM, 20 hr
Description: HMVEC-d were purchased from Clonetics, San Diego, Calif., USA. Cells were maintained in complete Endothelial Cell Medium (Clonetics® EGM®-2-MV BulletKit®) containing 500 ml of Endothelial Cell Basal Medium-2 and supplemented with hEGF, 0.5 ml; Hydrocortisone, 0.2 ml; GA-1000, 0.5 ml; FBS, 25 ml; VEGF, 0.5 ml; hFGF-B, 2.0 ml; R3-IGF-1, 0.5 ml; Ascorbic Acid, 0.5 ml in a 37° C. humidified atmosphere of 5% CO2/95% air. HMVEC-d were used for experiments between passages 4-8.
Matrigel (Becton Dickenson) basement membrane matrix was used to examine HMVEC-d tube formation. Matrigel (50 μl) was plated in 96 well culture plate wells after thawing on ice and allowed to polymerise at 37° C. 5% CO2 humidified atmosphere for 1 hr. HMVEC-d were removed from culture, trypsinised, and resuspended in full strength EGM growth medium. Cells were seeded at a density of 50×10^4 cells/cm^2 and incubated for 20 hr at 37° C. 5% CO2 humidified atmosphere. Endothelial cell tubule formation was assessed using phase contrast microscopy and photographed. A connecting branch between two discrete ECs was counted as one tube. The tube analysis was determined from 3 sequential fields (magnification×10) focusing on the surface of the matrigel.

[3] = test system: VEGF secreted from explant cultures of human colorectal cancers; experiment: VEGF secretion from human colorectal tumour explants (ELISA); format: cell-based; conditions: 72 hours
Description: Human colorectal tumour samples were taken directly from the pathology laboratory after surgery once adequate material was taken for diagnostic testing. The tumour samples were washed and stored in DMSO/tumour conditioning media (TCM). The samples were snap-frozen in liquid nitrogen and stored at −80° C. until compound testing was performed. Prior to compound testing, the tumours were thawed and incubated in fresh TCM for 24 hours. […] The TCM solutions were collected and stored at −20° C. and the remaining tumour explants were snap-frozen in liquid nitrogen and stored at −80° C. The protein content of each tumour sample was determined using the BCA protein assay. ELISA was used to determine the levels of VEGF, IL-8, MCP-1, GRO-α, IL-1β and IL-6. The secretion data were normalised according to the tumour sample's protein content.

[4] = 5 μM, treated day 1-5, analysed 5 dpf
[5] = 10 μM, treated day 1-5, analysed 5 dpf
[6] = 1 μM and 10 μM tested, concentration not given at place

SMILES	number of primary branches of hyaloid vasculature ([1]; 4 μM, analysed 5 dpf)	number of primary branches of hyaloid vasculature [1, 4]	number of primary branches of hyaloid vasculature ([1]; 7.5 μM, analysed 5 dpf)	anti-angiogenic effect compared with Avastin, number of primary hyaloid branches ([1]; 10 μM)	number of primary branches of hyaloid vasculature [1, 5]	dose-dependence of inhibition of hyaloid vasculature development [1]	inhibition of intraocular angiogenesis (hyaloid vessels) in library screen [1]	wholemount morphology of larvae (zebrafish larvae; 10 μM, treated from day 2-5 or day 3-5)	toxic effects / gross morphology of larvae (zebrafish larvae)	morphology of eyes in transverse sections (layering of the retina, size of retina/lens, presence of optic nerve) (zebrafish larvae; treated larvae)	inhibition of HMVEC-d tubule formation [2]	level of VEGF secreted by human tumour explants [3, 6]	level of VEGF secreted by human tumour explants ([3]; 10 μM)	reduction of tubule formation compared to control [2] [%]	level of VEGF secreted by human tumour explants ([3]; 1 μM)
Oc1ccccc1/C=C/c1ccc2ccccc2n1 [11B]	significant inhibition	significant inhibition; also recorded: significant reduction	significant inhibition	more effective anti-angiogenic effect than Avastin	significant inhibition; also recorded: significant reduction	dose-dependent and statistically significant manner; also recorded: dose-dependent inhibition	inhibit intraocular angiogenesis	normal	do not induce toxic effects	normal	significantly inhibits	significantly reduced	significantly reduces	–	–
COc1cc2c(C3CCCN3C)cnc(Cc3ccc4c(c3)OCO4)c2cc1OC (stereo not shown) [11F, 1-(1,3-benzodioxol-5-ylmethyl)-6,7-dimethoxy-4-(1-methyl-2-pyrrolidinyl)isoquinoline]	–	significant inhibition	–	–	significant inhibition	dose-dependent and statistically significant manner	inhibit intraocular angiogenesis	–	do not induce toxic effects	–	–	significantly reduced	significantly reduced	9	significantly reduced
